Reference: patent US20020051978A1, “Methods and compositions for the identification, assessment, prevention and therapy of human cancers” (priority 2000, published 2002)
Several values for one entry are separate records, joined by “and”; a condition that tells them apart may be missing. Equal entries are not always repeated. Structures can show the parent of a compound that is named as a salt. Where two headings read alike, the source gives them in different places.

System: 60 cancer cell lines (NCI 60 cancer cell line series)
Test: NCI-DTP in vitro cancer screen, sulforhodamine B (SRB) growth inhibition, 48 hour exposure
Type: cell-based, human
Parameters: key to sensitivity class Ovarian OVCAR-8 CL6005 / sensitivity class Ovarian SK-OV-3 CL6011 / sensitivity class Prostate DU-145 CL11003 / sensitivity class NSCLC NCI-H522 CL1003 / sensitivity class Ovarian IGROV1 CL6010 / sensitivity class Ovarian OVCAR-4 CL6002 / sensitivity class Prostate PC-3(I) CL11001 / sensitivity class Renal A498 CL9013 / sensitivity class Renal SN12C CL9008: sensitivity class: 1 = Low, 2 = Medium, 3 = High
Protocol: Cancer Cell Line Preparation. Sixty cancer cell lines were obtained from the National Cancer Institute Developmental Therapeutics Program (NCI-DTP). Procedures for growing cells and testing compounds have been described previously (Scudiero et al., Cancer Res. 1988, 48:4827-4833; Stinson et al., Anticancer Res.; Myers et al., Electrophoresis 1997, 18:647-653). Cells are plated on day 0 at a density individualized for each cell line so that they will generally be sub-confluent at the end of the assay period. On day 1, a compound is added in the format for a duplicate-well, 5-dose, ten-fold interval dose response study.
No-drug, no-cell and no-growth controls are included. On day 3 the cells are processed for staining with sulforhodamine B (SRB), which reflects the amount of cell mass present at the end of a 48 hour exposure to the test agent. From dose response curves based on the SRB data, various parameters can be determined. The one used in the present study is the G15o, defined as the concentration of compound required to inhibit growth of the cell line by 50%. More precisely, the quantity used in the calculation to be described is the potency measure -log{GI50}.
Activity database (A). Table IA, consisting of the growth inhibition (GI5o) values for the 60 cell lines and 24 compounds, was created from the NCI-DTP in vitro cancer screen database. This subset of compounds was selected from the larger 23,000 compound database available from the DTP. The compounds were selected on the basis of their known mechanism of action and chemical structure. The average potency—log{GI50} was extracted from the comma-delimited text files available through the Web at http://www.nci.nih.gov/intra/lmp/jnwbio.htmrl. Subsequently, these log{GI5o} values were inspected manually and classified as indicating either Low, Medium or High sensitivity to each compound.

[1] = cell line NSCLC NCI-H23(I), CL1001
[2] = cell line NSCLC NCI-H522, CL1003
[3] = cell line Ovarian IGROV1, CL6010
[4] = cell line Ovarian OVCAR-3, CL6001
[5] = cell line Ovarian OVCAR-8, CL6005
[6] = cell line Ovarian SK-OV-3, CL6011

For `CC[C@]1(O)C[C@@H]2CN(CCc3c([nH]c4ccccc34)[C@@](C(=O)OC)(c3cc4c(cc3OC)N(C)[C@H]3[C@@](O)(C(=O)OC)[C@H](OC(C)=O)[C@]5(CC)C=CCN6CC[C@]43[C@@H]65)C2)C1` [Vinblastine sulfate], the “classification of cell line as Low(1), Medium(2) or High(3) sensitivity to compound” value (shortened to “classification of cell line”) (CNS SF-539 CL12016) was 2, the “classification of cell line” value (CNS SNB-19 (CL12002)) was 2 and the “classification of cell line” value (CNS U251(I) CL12009) was 2. For the same molecule, the “classification of cell line” value (Colon HCC-2998 (CL4002)) was 2, the “classification of cell line” value (Colon HCT-15 CL4015) was 1 and the “classification of cell line” value (Colon KM12 (CL4017)) was 2. The “classification of cell line” value (Colon SW-620 (CL4009)) was 2, the “classification of cell line” value (Leukemia CCRF-CEM(I) (CL7003)) was 2 and the “classification of cell line” value (Leukemia HL-60(I) (CL7008)) was 3. For the same molecule, the “classification of cell line” value (Leukemia MOLT-4 (CL7006)) was 2, the “classification of cell line” value (Leukemia SR CL7019) was 3 and the “classification of cell line” value (Melanoma M14 (CL10014)) was 2. The “classification of cell line” value (Melanoma MALME-3M CL10002) was 2, the “classification of cell line” value (Melanoma SK-MEL-2 (CL10005)) was 2 and the “classification of cell line” value (Melanoma SK-MEL-5 (CL10007)) was 3. The “classification of cell line” value (Melanoma SK-MEL-28 (CL10008)) was 2, the “classification of cell line” value (Melanoma UACC-62 (CL10020)) was 3 and the “classification of cell line” value (NSCLC A549/ATCC (CL1004)) was 2. For the same molecule, the “classification of cell line” value (NSCLC EKVX (CL1008)) was 1, the “classification of cell line” value (NSCLC HOP-62 (CL1026)) was 2 and the “classification of cell line” value (NSCLC HOP-92 (CL1029)) was 2. For the same molecule, the “classification of cell line” value (NSCLC NCI-H226 CL1013) was 2, the “sensitivity class NSCLC NCI-H23(I) CL1001” value [1] was 2 and the “sensitivity class NSCLC NCI-H332M CL1017” value (cell line NSCLC NCI-H332M, CL1017) was 2. The “sensitivity class NSCLC NCI-H460 CL1021” value (cell line NSCLC NCI-H460, CL1021) was 2, the “sensitivity class NSCLC NCI-H522 CL1003” value [2] was 3 and the “sensitivity class Ovarian IGROV1 CL6010” value [3] was 2. For the same molecule, the “sensitivity class Ovarian OVCAR-3 CL6001” value [4] was 3, the “sensitivity class Ovarian OVCAR-8 CL6005” value [5] was 2 and the “sensitivity class Ovarian SK-OV-3 CL6011” value [6] was 2. For the same molecule, the “sensitivity class Renal 786-O CL9018” value (cell line Renal 786-O, CL9018) was 2, the “sensitivity class Renal CAKI-1 CL9015” value (cell line Renal CAKI-1, CL9015) was 2 and the “sensitivity class Renal RXF-393 CL9016” value (cell line Renal RXF-393, CL9016) was 2. The “sensitivity class Renal SN12C CL9008” value (cell line Renal SN12C, CL9008) was 2, the “sensitivity class Renal TK10 CL9024” value (cell line Renal TK10, CL9024) was 1 and the “sensitivity class Renal UO-31 CL9004” value (cell line Renal UO-31, CL9004) was 1.
For `O=NN(CCCl)C(=O)NCCCl` [BCNU], the “1 # of Low” value was 13, the “2 # of Medium” value was 37 and the “3 # of High” value was 10. For the same molecule, the “sensitivity class NSCLC NCI-H23(I) CL1001” value was 2, the “sensitivity class NSCLC NCI-H332M CL1017” value was 1 and the “sensitivity class NSCLC NCI-H460 CL1021” value was 2. For the same molecule, the “sensitivity class NSCLC NCI-H522 CL1003” value was 3, the “sensitivity class Ovarian IGROV1 CL6010” value was 2 and the “sensitivity class Ovarian OVCAR-3 CL6001” value was 2. For the same molecule, the “sensitivity class Ovarian OVCAR-4 CL6002” value was 2, the “sensitivity class Ovarian OVCAR-5 CL6003” value was 1 and the “sensitivity class Ovarian OVCAR-8 CL6005” value was 2. For the same molecule, the “sensitivity class Ovarian SK-OV-3 CL6011” value was 1, the “sensitivity class Prostate DU-145 CL11003” value was 1 and the “sensitivity class Prostate PC-3(I) CL11001” value was 2. For the same molecule, the “sensitivity class Renal 786-O CL9018” value was 3, the “sensitivity class Renal A498 CL9013” value was 1 and the “sensitivity class Renal ACHN CL9023” value was 2. The “sensitivity class Renal CAKI-1 CL9015” value was 2, the “sensitivity class Renal RXF-393 CL9016” value was 2 and the “sensitivity class Renal SN12C CL9008” value was 2. For the same molecule, the “sensitivity class Renal TK10 CL9024” value was 2 and the “sensitivity class Renal UO-31 CL9004” value was 1.
With `COc1cccc2c1C(=O)c1c(O)c3c(c(O)c1C2=O)C[C@@](O)(C(=O)CO)C[C@@H]3O[C@H]1C[C@H](N)C[C@H](C)O1` [Deoxydoxorubicin] the “classification of cell line” value (Breast BT-549 (CL5013)) was 2, the “classification of cell line” value (Breast MCF7/ADRr (CL5002)) was 1 and the “classification of cell line” value (Breast MDA-N CL5012) was 2. The “classification of cell line” value (CNS SF-268 CL12014) was 2, the “classification of cell line” value (CNS SF-295 CL12015) was 2 and the “classification of cell line” value (CNS SF-539 CL12016) was 2. For the same molecule, the “classification of cell line” value (CNS SNB-19 (CL12002)) was 2, the “classification of cell line” value (CNS SNB-75(I) CL12005) was 2 and the “classification of cell line” value (CNS U251(I) CL12009) was 2. For the same molecule, the “classification of cell line” value (Colon COLO-250 CL4010) was 2, the “classification of cell line” value (Colon HCT-15 CL4015) was 1 and the “classification of cell line” value (Colon HT29(I) CL4001) was 2. For the same molecule, the “classification of cell line” value (Colon KM12 (CL4017)) was 2, the “classification of cell line” value (Leukemia CCRF-CEM(I) (CL7003)) was 2 and the “classification of cell line” value (Leukemia K562(I) CL7005) was 2. The “classification of cell line” value (Leukemia RPMI-8226(I) (CL7010)) was 2, the “classification of cell line” value (Leukemia SR CL7019) was 3 and the “classification of cell line” value (Melanoma LOX IMVI CL10001) was 2. For the same molecule, the “classification of cell line” value (Melanoma M14 (CL10014)) was 2, the “classification of cell line” value (Melanoma MALME-3M CL10002) was 2 and the “sensitivity class NSCLC NCI-H23(I) CL1001” value [1] was 2. For the same molecule, the “sensitivity class NSCLC NCI-H522 CL1003” value [2] was 2, the “sensitivity class Ovarian IGROV1 CL6010” value [3] was 2 and the “sensitivity class Ovarian OVCAR-3 CL6001” value [4] was 2. For the same molecule, the “sensitivity class Ovarian OVCAR-4 CL6002” value (cell line Ovarian OVCAR-4, CL6002) was 2, the “sensitivity class Ovarian OVCAR-8 CL6005” value [5] was 2 and the “sensitivity class Ovarian SK-OV-3 CL6011” value [6] was 2. The “sensitivity class Prostate DU-145 CL11003” value (cell line Prostate DU-145, CL11003) was 2, the “sensitivity class Prostate PC-3(I) CL11001” value (cell line Prostate PC-3(I), CL11001) was 2 and the “sensitivity class Renal A498 CL9013” value (cell line Renal A498, CL9013) was 2. The “sensitivity class Renal SN12C CL9008” value (cell line Renal SN12C, CL9008) was 2, the “sensitivity class Renal TK10 CL9024” value (cell line Renal TK10, CL9024) was 1 and the “sensitivity class Renal UO-31 CL9004” value (cell line Renal UO-31, CL9004) was 1. The “3 # of High” value (number of the 60 cell lines classified High (3) sensitivity) was 7.
In the case of `Nc1ccn([C@@H]2O[C@H](CO)[C@@H](O)[C@@H]2O)c(=O)n1` [AraC], the “1 # of Low” value is reported as 17, the “2 # of Medium” value is reported as 33 and the “3 # of High” value is reported as 10. For the same molecule, the “classification of cell line” value was 2 and 3 and 1, the “sensitivity class NSCLC NCI-H23(I) CL1001” value was 3 and the “sensitivity class NSCLC NCI-H332M CL1017” value was 2. The “sensitivity class NSCLC NCI-H460 CL1021” value was 3, the “sensitivity class NSCLC NCI-H522 CL1003” value was 2 and the “sensitivity class Ovarian IGROV1 CL6010” value was 1. For the same molecule, the “sensitivity class Ovarian OVCAR-3 CL6001” value was 1, the “sensitivity class Ovarian OVCAR-4 CL6002” value was 1 and the “sensitivity class Ovarian OVCAR-5 CL6003” value was 2. The “sensitivity class Ovarian OVCAR-8 CL6005” value was 2, the “sensitivity class Ovarian SK-OV-3 CL6011” value was 2 and the “sensitivity class Prostate DU-145 CL11003” value was 1. The “sensitivity class Prostate PC-3(I) CL11001” value was 2, the “sensitivity class Renal 786-O CL9018” value was 2 and the “sensitivity class Renal A498 CL9013” value was 2. The “sensitivity class Renal ACHN CL9023” value was 2, the “sensitivity class Renal CAKI-1 CL9015” value was 2 and the “sensitivity class Renal RXF-393 CL9016” value was 2. For the same molecule, the “sensitivity class Renal SN12C CL9008” value was 2, the “sensitivity class Renal TK10 CL9024” value was 1 and the “sensitivity class Renal UO-31 CL9004” value was 2. For the same molecule, the “sensitivity class of the cell line to the compound (1 Low, 2 Medium, 3 High)” value was 2 and 1 and 3.
